Reference: PubChem BioAssay (NCI)
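These data come from cells grown in 96-well plates and exposed to compound for 48 hours at five concentrations. The concentration for full growth arrest is given as TGI.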

How the values were obtained:
Test in all cases: inhibition of tumour cell growth, NCI panel, 48 h
786-0 renal = tested on: 786-0 renal
A498 renal = tested on: A498 renal
A549 NSCLC = tested on: A549 NSCLC
ACHN renal = tested on: ACHN renal
BT-549 breast = tested on: BT-549 breast
CAKI-1 renal = tested on: CAKI-1 renal
CCRF-CEM leukemia = tested on: CCRF-CEM leukemia
COLO 205 colon = tested on: COLO 205 colon
DU-145 prostate = tested on: DU-145 prostate
EKVX NSCLC = tested on: EKVX NSCLC
HCT-116 colon = tested on: HCT-116 colon
HCT-15 colon = tested on: HCT-15 colon
HOP-92 NSCLC = tested on: HOP-92 NSCLC
HS 578T breast = tested on: HS 578T breast
HT29 colon = tested on: HT29 colon
IGROV1 ovarian = tested on: IGROV1 ovarian
K-562 leukemia = tested on: K-562 leukemia
LOX IMVI melanoma = tested on: LOX IMVI melanoma
M14 melanoma = tested on: M14 melanoma
MALME-3M melanoma = tested on: MALME-3M melanoma
MDA-MB-231 breast = tested on: MDA-MB-231 breast
MDA-MB-435 = tested on: MDA-MB-435
MDA-N = tested on: MDA-N
MOLT-4 leukemia = tested on: MOLT-4 leukemia
NCI-H226 lung = tested on: NCI-H226 lung
NCI-H23 lung = tested on: NCI-H23 lung
NCI-H460 lung = tested on: NCI-H460 lung
NCI-H522 lung = tested on: NCI-H522 lung
NCI/ADR-RES ovarian = tested on: NCI/ADR-RES ovarian
OVCAR-3 ovarian = tested on: OVCAR-3 ovarian
OVCAR-5 ovarian = tested on: OVCAR-5 ovarian
OVCAR-8 ovarian = tested on: OVCAR-8 ovarian
PC-3 prostate = tested on: PC-3 prostate
RPMI-8226 leukemia = tested on: RPMI-8226 leukemia
RXF 393 renal = tested on: RXF 393 renal
SF-268 CNS = tested on: SF-268 CNS
SF-295 CNS = tested on: SF-295 CNS
SF-539 CNS = tested on: SF-539 CNS
SK-MEL-2 melanoma = tested on: SK-MEL-2 melanoma
SK-MEL-5 melanoma = tested on: SK-MEL-5 melanoma
SK-OV-3 ovarian = tested on: SK-OV-3 ovarian
SN12C renal = tested on: SN12C renal
SNB-19 CNS = tested on: SNB-19 CNS
SR leukemia = tested on: SR leukemia
SW-620 colon = tested on: SW-620 colon
TK-10 renal = tested on: TK-10 renal
U251 CNS = tested on: U251 CNS
UACC-257 melanoma = tested on: UACC-257 melanoma
UACC-62 melanoma = tested on: UACC-62 melanoma
UO-31 renal = tested on: UO-31 renal
HL-60(TB) leukemia = tested on: HL-60(TB) leukemia
HOP-62 NSCLC = tested on: HOP-62 NSCLC
KM12 colon = tested on: KM12 colon
MCF7 breast = tested on: MCF7 breast
OVCAR-4 ovarian = tested on: OVCAR-4 ovarian
SK-MEL-28 melanoma = tested on: SK-MEL-28 melanoma
SNB-75 CNS = tested on: SNB-75 CNS
T-47D breast = tested on: T-47D breast

With `COc1ccc(N2C(=O)C3c4[nH]c5ccc(C)cc5c4C4CCC(C)CC4C3C2=O)cc1` (centres undefined) the TGI (786-0 renal) was over 100 µM, the TGI (A498 renal) was 85 µM and the TGI (A549 NSCLC) was over 100 µM. The TGI (ACHN renal) was over 100 µM, the TGI (BT-549 breast) was over 100 µM and the TGI (CAKI-1 renal) was over 100 µM. It also gave a TGI (CCRF-CEM leukemia) of over 100 µM, a TGI (COLO 205 colon) of over 100 µM and a TGI (DU-145 prostate) of over 100 µM. The TGI (EKVX NSCLC) was over 100 µM, the TGI (HCT-116 colon) was over 100 µM and the TGI (HCT-15 colon) was over 100 µM. It also gave a TGI (HOP-92 NSCLC) of over 100 µM, a TGI (HS 578T breast) of 37.2 µM and a TGI (HT29 colon) of over 100 µM. It also gave a TGI (IGROV1 ovarian) of over 100 µM, a TGI (K-562 leukemia) of over 100 µM and a TGI (LOX IMVI melanoma) of over 100 µM. It also gave a TGI (M14 melanoma) of over 100 µM, a TGI (MALME-3M melanoma) of over 100 µM and a TGI (MDA-MB-231 breast) of over 100 µM. The TGI (MDA-MB-435) was over 100 µM, the TGI (MDA-N) was over 100 µM and the TGI (MOLT-4 leukemia) was over 100 µM. The TGI (NCI-H226 lung) was over 100 µM, the TGI (NCI-H23 lung) was over 100 µM and the TGI (NCI-H460 lung) was over 100 µM. The TGI (NCI-H522 lung) was over 100 µM, the TGI (NCI/ADR-RES ovarian) was over 100 µM and the TGI (OVCAR-3 ovarian) was over 100 µM. The TGI (OVCAR-5 ovarian) was over 100 µM, the TGI (OVCAR-8 ovarian) was over 100 µM and the TGI (PC-3 prostate) was over 100 µM. It also gave a TGI (RPMI-8226 leukemia) of over 100 µM, a TGI (RXF 393 renal) of 58.6 µM and a TGI (SF-268 CNS) of over 100 µM. The TGI (SF-295 CNS) was over 100 µM, the TGI (SF-539 CNS) was over 100 µM and the TGI (SK-MEL-2 melanoma) was over 100 µM. For the same compound, the TGI (SK-MEL-5 melanoma) was over 100 µM, the TGI (SK-OV-3 ovarian) was over 100 µM and the TGI (SN12C renal) was over 100 µM. For the same compound, the TGI (SNB-19 CNS) was over 100 µM, the TGI (SR leukemia) was over 100 µM and the TGI (SW-620 colon) was over 100 µM. The TGI (TK-10 renal) was over 100 µM, the TGI (U251 CNS) was over 100 µM and the TGI (UACC-257 melanoma) was over 100 µM. It also gave a TGI (UACC-62 melanoma) of over 100 µM and a TGI (UO-31 renal) of over 100 µM.
`C=CCOC1OC(CO[Si](C)(C)C(C)(C)C)C(OCc2ccccc2)C(OCc2ccccc2)C1OCc1ccccc1` (centres undefined) gave a TGI (786-0 renal) of 22.3 µM, a TGI (A549 NSCLC) of over 100 µM and a TGI (ACHN renal) of over 100 µM. The TGI (BT-549 breast) was over 100 µM, the TGI (CAKI-1 renal) was over 100 µM and the TGI (CCRF-CEM leukemia) was over 100 µM. For the same compound, the TGI (COLO 205 colon) was over 100 µM, the TGI (DU-145 prostate) was over 100 µM and the TGI (EKVX NSCLC) was over 100 µM. It also gave a TGI (HCT-116 colon) of 65.9 µM, a TGI (HCT-15 colon) of over 100 µM and a TGI (HL-60(TB) leukemia) of over 100 µM. The TGI (HOP-62 NSCLC) was 48.3 µM, the TGI (HOP-92 NSCLC) was over 100 µM and the TGI (HS 578T breast) was over 100 µM. It also gave a TGI (HT29 colon) of over 100 µM, a TGI (IGROV1 ovarian) of over 100 µM and a TGI (K-562 leukemia) of over 100 µM. The TGI (KM12 colon) was over 100 µM, the TGI (LOX IMVI melanoma) was over 100 µM and the TGI (M14 melanoma) was over 100 µM. It also gave a TGI (MALME-3M melanoma) of over 100 µM, a TGI (MCF7 breast) of over 100 µM and a TGI (MDA-MB-435) of over 100 µM. For the same compound, the TGI (MDA-N) was over 100 µM, the TGI (MOLT-4 leukemia) was over 100 µM and the TGI (NCI-H226 lung) was over 100 µM. For the same compound, the TGI (NCI-H23 lung) was over 100 µM, the TGI (NCI-H460 lung) was over 100 µM and the TGI (NCI-H522 lung) was over 100 µM. It also gave a TGI (NCI/ADR-RES ovarian) of over 100 µM, a TGI (OVCAR-3 ovarian) of over 100 µM and a TGI (OVCAR-4 ovarian) of over 100 µM. For the same compound, the TGI (OVCAR-5 ovarian) was over 100 µM, the TGI (OVCAR-8 ovarian) was over 100 µM and the TGI (PC-3 prostate) was over 100 µM. It also gave a TGI (RPMI-8226 leukemia) of over 100 µM, a TGI (SF-268 CNS) of over 100 µM and a TGI (SF-295 CNS) of 54.9 µM. It also gave a TGI (SK-MEL-2 melanoma) of over 100 µM, a TGI (SK-MEL-28 melanoma) of over 100 µM and a TGI (SK-MEL-5 melanoma) of over 100 µM. The TGI (SK-OV-3 ovarian) was over 100 µM, the TGI (SN12C renal) was over 100 µM and the TGI (SNB-19 CNS) was 60.3 µM. The TGI (SNB-75 CNS) was 51.1 µM, the TGI (SR leukemia) was over 100 µM and the TGI (SW-620 colon) was over 100 µM. For the same compound, the TGI (T-47D breast) was over 100 µM, the TGI (TK-10 renal) was over 100 µM and the TGI (U251 CNS) was over 100 µM. The TGI (UACC-257 melanoma) was over 100 µM, the TGI (UACC-62 melanoma) was over 100 µM and the TGI (UO-31 renal) was over 100 µM.
